Experimental data from patent US20050250837A1, “Use of C-Raf inhibitors for the treatment of neurodegenerative diseases” (priority 2002, published 2005).

What was measured:
CDK1/cyclinB = CDK1/cyclinB (Homo sapiens, UniProt P06493); experiment: In vitro kinase assay, purified kinase (Upstate Kinase Profiling); format: biochemical; further: ATP 10 µM
Source text: (§1) (Lackey et al., 2000). […] A number of reports have implicated JNKs in the promotion of neuronal apoptosis both in vivo and in cell culture systems (Coffey et al., 2002). Although all three JNK proteins are expressed in neurons, the phosphorylation of c-jun is believed to be mediated by JNK2 or JNK3 (Bruckner et al., 2001; Bruckner and Estus, 2002; Coffey et al., 2002). […] In apoptotic neurons, JNK activation is mediated primarily by MKK7 (Eilers et al., 1998; Trotter et al., 2002).
(§2) In general, in vitro kinase assays were performed using purified kinase and synthetic substrates under standard conditions using the Kinase Profiling service of Upstate Biotechnology. Briefly, for each assay 5-10 mU of purified kinase was used. […] Kinase activity was quantified by measuring ^33P incorporation by spotting an aliquot on P30 filters, washing in 50 mM phosphoric acid and scintillation counting. The buffer composition for C-Raf, JNK1, JNK2, JNK3, MEK1, MKK6, MKK7 was 50 mM Tris pH7.5, 0.1 mM EGTA, 10 mM Mg acetate and [γ-^33P-ATP]. The peptide substrates used were as follows: For C-Raf, 0.66 mg/ml MBP; for cdks, 0.1 mg/ml histone H1; for JNKs, 3 uM ATF2; for MEK1, 1 uM MAPK2; for MKK6, 1 uM of SAPK2a and for MKK7, 2 uM JNK1α.

CDK2/cyclinA = CDK2/cyclinA (Homo sapiens, UniProt P24941); experiment: as above; format: biochemical; further: ATP 10 µM
Source text: as §1, §2

CDK5/p35 = CDK5/p35 (Homo sapiens, UniProt Q00535); experiment: as above; format: biochemical; further: ATP 10 µM
Source text: as §1, §2

CDK6/cyclinD3 = CDK6/cyclinD3 (Homo sapiens, UniProt Q00534); experiment: as above; format: biochemical; further: ATP 10 µM
Source text: as §1, §2

GSK3β = GSK3β (Homo sapiens, UniProt P49841); experiment: as above; format: biochemical; further: ATP 10 µM
Source text: as §1, §2

JNK1 = JNK1 (Homo sapiens, UniProt P45983); experiment: as above; format: biochemical; further: ATP 10 µM
Source text: as §1, §2

JNK2 = JNK2 (Homo sapiens, UniProt P45984); experiment: as above; format: biochemical; further: ATP 10 µM
Source text: as §1, §2

MEK1 = MEK1 (Homo sapiens, UniProt Q02750); experiment: as above; format: biochemical; further: ATP 10 µM
Source text: as §1, §2

MKK6 = MKK6 (Homo sapiens, UniProt P52564); experiment: as above; format: biochemical; further: ATP 10 µM
Source text: as §1, §2

[1] = tested on: cerebellar granule neurons; experiment: LK-induced apoptosis of cultured cerebellar granule neurons (MTT viability); format: cell-based, rat
Experimental: Cultured cerebellar granule neurons undergo apoptosis when switched from HK to medium containing LK (D'Mello et al., 1993). […] Neuronal cultures were switched to medium containing LK, or LK medium containing different doses of GW5074. Cell viability was quantified 24 hours later. Control cultures received HK medium. […] Protection against LK-induced apoptosis is maximal at 1 uM.
Granule neuron cultures were obtained from dissociated cerebella of 7-8 day old rats as described previously (D'Mello et al., 1993). Cells were plated in Basal Eagle's Medium with Earles salts (BME) supplemented with 10% fetal bovine serum (FBS), 25 mM KCl, 2 mM glutamine (Gibco-BRL), and 100 ug/ml gentamycin on dishes coated with poly-L-lys ine in 24-well dishes at a density 1.0×10^6 cells/well, 1.2×10^7 cells/60 mm dish, or 3.0×10^7 cells/100 mm dish. Cytosine arabinofuranoside (10 uM) was added to the culture medium 18-22 hours after plating to prevent replication of non-neuronal cells. Cultures were maintained for 6-7 days prior to experimental treatments. For this, the cells were rinsed once and then maintained in low K^+ medium (serum-free BME medium, 5 mM KCl) or high K^+ medium (serum-free BME medium, supplemented with 20 mM KCl). When used to treat cultures, GW5074 was added at the time when cells were switched to LK medium. Treatment of cultures with pharmacological inhibitors was initiated 15 min prior to rinsing and was maintained through the subsequent incubation in LK or HK medium unless specified otherwise. For MPP+ and methylmercury treatments, 7-8 day old cultures were switched to HK medium containing 200 uM MPP+ or 0.5 uM methylmercury. Viability was assayed 24 hours later.
Neuronal survival was quantified by the MTT assay as previously described (Koulich et al., 2001). Briefly, the tetrazolium salt MTT [3-(4,5-dimethyl-2-thiazolyl)-2,5-diphenyl-2H tetrazolium bromide] was added to the cultures at a final concentration of 1 mg/ml, and incubation of the culture was continued in the CO2 incubator for a further 30 min at 37° C. The assay was stopped by adding lysis buffer [20% SDS in 50% N,N-dimethyl formamide, pH 4.7]. The absorbance was measured specrophotometrically at 570 nm after an overnight incubation at room temperature. The absorbance of a well without cells was used as background and subtracted. Results obtained using the MTT assays were confirmed using the fluorescein-diacetate method for quantification of cell viability, as previously described (D'Mello et al., 1993). Data are presented as mean+/−standard deviation. Statistical analysis was performed using ANOVA and Student-Neuman-Keuls' test.

[2] = tested on: cerebellar granule neurons; experiment: Apoptosis of neurons infected with adenoviral dominant-negative Akt; format: cell-based, rat; conditions: LK + 1 uM GW5074 or 25 ng/ml IGF-1
Source text: Five day old neuronal cultures were infected with adenoviral vectors expressing either GFP or hemagluttinin (HA)-tagged dominant-negative Akt. […] Infected neurons were detected by positive staining for GFP or HA by immunocytochemistry. The proportion of apoptotic cells (condensed or fragmented nuclei) as a percentage of total infected neurons was quantified following DAPI-staining.
DnAkt and control recombinant adenovirus expressing green fluorescent protein (Ad-GFP) are propagated in HEK293T cells and purified by cesium chloride density gradient centrifugation. After quantification of titer, virus at an MOI of 10 are used to infect granule neuron cultures 5 days after plating by direct addition to the medium. Treatments are performed 24 hours after addition of virus.

[3] = tested on: cerebellar granule neurons; experiment: Methylmercury-induced cell death in cerebellar granule neurons; format: cell-based, rat; conditions: HK + 0.5 uM methylmercury, different concentrations of GW5074, 24 hours

Sequence of CDK5/p35 (Q00535 whole entry, species assumed): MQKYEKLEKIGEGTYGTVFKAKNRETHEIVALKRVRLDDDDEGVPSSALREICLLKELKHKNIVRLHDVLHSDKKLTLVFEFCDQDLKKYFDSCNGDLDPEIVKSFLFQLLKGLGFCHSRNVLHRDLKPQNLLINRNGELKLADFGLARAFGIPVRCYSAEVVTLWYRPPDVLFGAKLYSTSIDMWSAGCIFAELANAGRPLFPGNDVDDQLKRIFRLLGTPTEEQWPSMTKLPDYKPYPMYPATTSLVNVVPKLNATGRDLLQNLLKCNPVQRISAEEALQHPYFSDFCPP
Sequence of CDK5/p35 (Q15078 whole entry partner, species assumed): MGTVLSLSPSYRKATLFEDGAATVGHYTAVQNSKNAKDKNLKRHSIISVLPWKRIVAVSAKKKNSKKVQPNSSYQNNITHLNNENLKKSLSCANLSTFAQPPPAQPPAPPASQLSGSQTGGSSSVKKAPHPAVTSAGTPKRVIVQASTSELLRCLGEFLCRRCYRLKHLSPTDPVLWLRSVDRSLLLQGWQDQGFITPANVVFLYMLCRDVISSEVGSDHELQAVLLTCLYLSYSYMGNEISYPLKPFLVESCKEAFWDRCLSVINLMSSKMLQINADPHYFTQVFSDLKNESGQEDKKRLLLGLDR
Sequence of CDK1/cyclinB (P06493 whole entry, species assumed): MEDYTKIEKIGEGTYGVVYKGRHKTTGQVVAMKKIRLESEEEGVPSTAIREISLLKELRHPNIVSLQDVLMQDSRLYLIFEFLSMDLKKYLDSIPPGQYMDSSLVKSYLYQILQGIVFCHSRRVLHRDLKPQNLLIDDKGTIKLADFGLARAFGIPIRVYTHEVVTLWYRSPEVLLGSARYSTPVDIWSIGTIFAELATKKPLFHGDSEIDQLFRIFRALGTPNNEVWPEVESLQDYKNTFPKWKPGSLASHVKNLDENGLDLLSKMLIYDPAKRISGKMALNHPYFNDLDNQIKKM
Sequence of CDK1/cyclinB (P14635 whole entry partner, species assumed): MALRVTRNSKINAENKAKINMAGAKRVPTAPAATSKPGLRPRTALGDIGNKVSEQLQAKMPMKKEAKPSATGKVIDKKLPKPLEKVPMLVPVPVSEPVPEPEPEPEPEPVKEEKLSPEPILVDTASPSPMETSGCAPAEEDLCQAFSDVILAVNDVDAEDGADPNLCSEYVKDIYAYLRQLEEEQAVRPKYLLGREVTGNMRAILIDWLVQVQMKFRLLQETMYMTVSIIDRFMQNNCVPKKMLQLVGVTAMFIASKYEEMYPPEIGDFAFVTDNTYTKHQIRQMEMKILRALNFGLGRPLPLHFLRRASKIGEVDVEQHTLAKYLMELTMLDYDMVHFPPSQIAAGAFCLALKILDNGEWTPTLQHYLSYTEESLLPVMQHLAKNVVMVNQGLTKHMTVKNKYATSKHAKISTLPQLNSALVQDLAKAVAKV
Sequence of MKK6 (P52564 whole entry, species assumed): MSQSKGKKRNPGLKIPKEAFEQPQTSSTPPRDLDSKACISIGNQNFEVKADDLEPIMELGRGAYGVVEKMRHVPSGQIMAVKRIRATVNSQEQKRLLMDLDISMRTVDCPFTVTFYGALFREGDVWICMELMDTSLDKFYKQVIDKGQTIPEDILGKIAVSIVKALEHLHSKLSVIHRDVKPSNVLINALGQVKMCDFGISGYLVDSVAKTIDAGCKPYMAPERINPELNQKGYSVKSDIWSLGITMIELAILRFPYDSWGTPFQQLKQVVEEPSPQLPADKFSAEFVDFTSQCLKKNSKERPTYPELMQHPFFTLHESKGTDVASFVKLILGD
Sequence of JNK2 (P45984 whole entry, species assumed): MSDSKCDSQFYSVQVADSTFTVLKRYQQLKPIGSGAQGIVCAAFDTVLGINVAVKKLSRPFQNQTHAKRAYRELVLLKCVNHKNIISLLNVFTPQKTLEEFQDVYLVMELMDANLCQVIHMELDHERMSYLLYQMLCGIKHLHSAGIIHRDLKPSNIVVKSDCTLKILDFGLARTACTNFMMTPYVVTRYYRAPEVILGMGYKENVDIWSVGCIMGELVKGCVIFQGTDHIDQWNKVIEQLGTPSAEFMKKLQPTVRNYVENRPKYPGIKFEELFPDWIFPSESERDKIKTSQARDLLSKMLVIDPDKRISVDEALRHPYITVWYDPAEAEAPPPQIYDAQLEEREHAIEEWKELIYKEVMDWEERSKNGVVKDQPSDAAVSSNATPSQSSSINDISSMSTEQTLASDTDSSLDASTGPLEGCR
Sequence of JNK1 (P45983 whole entry, species assumed): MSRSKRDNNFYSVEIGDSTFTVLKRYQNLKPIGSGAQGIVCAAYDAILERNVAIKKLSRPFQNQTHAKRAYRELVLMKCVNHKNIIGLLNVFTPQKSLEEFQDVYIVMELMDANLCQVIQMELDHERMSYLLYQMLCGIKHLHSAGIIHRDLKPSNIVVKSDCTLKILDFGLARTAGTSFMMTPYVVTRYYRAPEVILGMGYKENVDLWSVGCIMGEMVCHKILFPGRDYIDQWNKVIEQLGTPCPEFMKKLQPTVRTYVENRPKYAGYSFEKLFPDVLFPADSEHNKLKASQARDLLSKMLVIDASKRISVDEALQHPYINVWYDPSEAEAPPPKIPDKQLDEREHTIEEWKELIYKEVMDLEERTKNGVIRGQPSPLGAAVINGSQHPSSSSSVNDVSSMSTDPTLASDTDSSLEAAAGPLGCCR
Sequence of CDK6/cyclinD3 (Q00534 whole entry, species assumed): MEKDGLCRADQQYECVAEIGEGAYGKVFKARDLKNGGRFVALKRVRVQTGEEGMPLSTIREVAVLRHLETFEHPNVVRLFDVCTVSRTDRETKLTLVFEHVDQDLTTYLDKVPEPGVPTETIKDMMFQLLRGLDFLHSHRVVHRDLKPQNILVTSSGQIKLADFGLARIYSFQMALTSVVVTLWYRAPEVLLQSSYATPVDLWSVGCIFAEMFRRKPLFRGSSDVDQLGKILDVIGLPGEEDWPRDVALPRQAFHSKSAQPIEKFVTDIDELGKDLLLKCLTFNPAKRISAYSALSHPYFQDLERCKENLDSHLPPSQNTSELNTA
Sequence of CDK6/cyclinD3 (P30281 whole entry partner, species assumed): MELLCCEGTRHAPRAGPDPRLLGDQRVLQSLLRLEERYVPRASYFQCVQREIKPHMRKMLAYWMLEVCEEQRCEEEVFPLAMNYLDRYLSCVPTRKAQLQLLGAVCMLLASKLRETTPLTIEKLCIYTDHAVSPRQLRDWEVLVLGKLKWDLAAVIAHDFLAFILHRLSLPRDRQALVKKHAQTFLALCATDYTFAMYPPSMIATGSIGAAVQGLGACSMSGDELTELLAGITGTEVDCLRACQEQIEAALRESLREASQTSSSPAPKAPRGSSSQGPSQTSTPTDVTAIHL
Sequence of MEK1 (Q02750 whole entry, species assumed): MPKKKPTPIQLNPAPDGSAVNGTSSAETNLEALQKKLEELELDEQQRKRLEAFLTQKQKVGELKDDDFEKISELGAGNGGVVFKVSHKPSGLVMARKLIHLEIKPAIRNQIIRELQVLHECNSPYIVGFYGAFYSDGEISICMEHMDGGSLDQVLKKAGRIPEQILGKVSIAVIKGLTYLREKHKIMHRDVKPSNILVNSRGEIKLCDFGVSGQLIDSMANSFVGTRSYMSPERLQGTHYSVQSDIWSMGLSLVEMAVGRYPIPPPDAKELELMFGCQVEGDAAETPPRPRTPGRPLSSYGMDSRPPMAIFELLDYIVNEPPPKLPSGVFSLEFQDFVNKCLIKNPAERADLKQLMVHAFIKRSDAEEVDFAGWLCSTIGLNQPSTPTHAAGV
Sequence of GSK3β (P49841 whole entry, species assumed): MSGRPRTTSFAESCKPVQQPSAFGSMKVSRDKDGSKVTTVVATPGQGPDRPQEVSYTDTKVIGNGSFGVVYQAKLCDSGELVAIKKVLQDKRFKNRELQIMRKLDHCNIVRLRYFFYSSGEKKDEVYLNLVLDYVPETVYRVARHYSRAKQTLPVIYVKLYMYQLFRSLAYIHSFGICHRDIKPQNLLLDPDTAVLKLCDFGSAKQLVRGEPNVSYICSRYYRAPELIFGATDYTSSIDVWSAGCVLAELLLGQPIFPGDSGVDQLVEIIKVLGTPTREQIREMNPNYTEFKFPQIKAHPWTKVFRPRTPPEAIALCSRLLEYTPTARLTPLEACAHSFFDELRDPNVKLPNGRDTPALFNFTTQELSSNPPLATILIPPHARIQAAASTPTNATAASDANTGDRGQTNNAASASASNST

Compound: O=C1Nc2ccc(I)cc2C1=Cc1cc(Br)c(O)c(Br)c1 [GW5074, 5-Iodo-3-[(3,5-dibromo-4-hydroxyphenyl)methylene]-2-indolinone]
- activity at 1 µM (CDK1/cyclinB): 90 ± 12%
- activity at 1 µM (CDK2/cyclinA): 99%
- activity at 1 µM (CDK5/p35): 94 ± 2%
- activity at 1 µM (CDK6/cyclinD3): 98 ± 1%
- activity at 1 µM (GSK3β): 81 ± 6%
- activity at 1 µM (JNK1): 94 ± 3%
- activity at 1 µM (JNK2): 91 ± 4%
- activity at 1 µM (MEK1): 94 ± 4%
- activity at 1 µM (MKK6): 91 ± 4%
- neuroprotection against LK-induced apoptosis ([1]; 5 uM and 10 uM): Neuroprotection by GW5074 is also observed
- protection against LK-induced apoptosis ([1]; LK + 1 uM GW5074, 24 hours): prevents LK-induced apoptosis
- concentration of maximal protection against LK-induced apoptosis ([1]; viability 24 hours after switch to LK): 1 µM
- effect of dominant-negative Akt on survival promotion [2]: no effect on the ability of GW5074 to maintain neuronal survival
- methylmercury-induced cell death [3]: reduced methylmercury-induced cell death
